Values belong to the compound of their own block, whether it stands above or below them.
Legend:
[1] = biological target: T1, Seed linoleate 13S-lipoxygenase-1 (Glycine max) (UniProt P08170); experiment: Inhibition of soybean LOX-1 using linoleic acid as substrate at 100 uM relative to control
T1 sequence (whole entry): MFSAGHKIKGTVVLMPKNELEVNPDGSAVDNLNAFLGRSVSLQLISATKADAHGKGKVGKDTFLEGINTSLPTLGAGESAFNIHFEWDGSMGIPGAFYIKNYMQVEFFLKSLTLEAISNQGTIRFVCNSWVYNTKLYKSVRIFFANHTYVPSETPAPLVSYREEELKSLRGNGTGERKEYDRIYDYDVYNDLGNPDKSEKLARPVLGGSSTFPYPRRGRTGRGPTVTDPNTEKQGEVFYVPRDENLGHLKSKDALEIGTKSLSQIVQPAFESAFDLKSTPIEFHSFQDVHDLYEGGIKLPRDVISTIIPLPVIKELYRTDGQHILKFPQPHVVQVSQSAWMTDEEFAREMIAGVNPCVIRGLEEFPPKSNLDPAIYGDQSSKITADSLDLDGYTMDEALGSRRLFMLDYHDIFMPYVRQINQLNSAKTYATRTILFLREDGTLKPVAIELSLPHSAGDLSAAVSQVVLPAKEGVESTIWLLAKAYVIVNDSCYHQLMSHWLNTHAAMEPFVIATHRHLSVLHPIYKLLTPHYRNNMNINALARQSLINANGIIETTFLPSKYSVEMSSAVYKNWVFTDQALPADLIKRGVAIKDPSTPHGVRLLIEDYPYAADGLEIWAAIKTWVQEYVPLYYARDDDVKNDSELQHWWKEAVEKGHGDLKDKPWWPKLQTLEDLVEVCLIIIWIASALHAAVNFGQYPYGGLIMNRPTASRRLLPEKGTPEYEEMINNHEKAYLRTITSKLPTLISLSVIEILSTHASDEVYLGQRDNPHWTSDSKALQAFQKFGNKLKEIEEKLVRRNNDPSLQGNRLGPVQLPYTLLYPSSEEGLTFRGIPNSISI

Rattus norvegicus [2] = experiment: Anti-inflammatory activity against Carrageenan-induced paw edema in rat assessed as reduction in edema measured after 6 hrs relative to control; type: functional; parameters: concentration or dose not given beside the values
[3] = biological target: T2, Seed linoleate 13S-lipoxygenase-1 (Glycine max, UniProt P08170); experiment: Inhibition of soybean LOX-1 using linoleic acid as substrate
T2 sequence (P08170 whole entry): T1 sequence (whole entry)

Rattus norvegicus [4] = experiment: Anti-inflammatory activity against carrageenan-induced paw edema in Sprague-Dawley rat assessed as reduction in edema measured after 3 hrs relative to indomethacin; type: functional; parameters: concentration or dose not given beside the values
Rattus norvegicus [5] = experiment: Anti-inflammatory activity against carrageenan-induced paw edema in Sprague-Dawley rat assessed as reduction in edema measured after 6 hrs relative to indomethacin; type: functional; parameters: concentration or dose not given beside the values
Rattus norvegicus [6] = experiment: Anti-inflammatory activity against carrageenan-induced paw edema in Sprague-Dawley rat assessed as inhibition of paw edema at 10 mg/kg, ip measured after 3 hrs relative to control; type: functional; parameters: scale not given: the % may be the effect or the level left
Rattus norvegicus [7] = experiment: Anti-inflammatory activity against carrageenan-induced paw edema in Sprague-Dawley rat assessed as inhibition of paw edema at 10 mg/kg, ip measured after 6 hrs relative to control; type: functional; parameters: scale not given: the % may be the effect or the level left
[8] = Inhibition of LPS-induced NFkappaB activation in mouse RAW264.7 cells assessed as effect on LPS-induced nuclear translocation of NF-kappaB incubated for 1 hr; type: cell-based; conditions: RAW264.7, 1 h
RAW264.7 = experiment: Inhibition of LPS-induced NFkappaB activation in mouse RAW264.7 cells assessed as effect on LPS-induced nuclear translocation of NF-kappaB incubated for 1 hr at 5 uM relative to control; type: cell-based
[9] = biological target: T3, Prostaglandin G/H synthase 2 (Homo sapiens, UniProt P35354); experiment: Inhibition of COX-2 (unknown origin)
T3 sequence (P35354 whole entry): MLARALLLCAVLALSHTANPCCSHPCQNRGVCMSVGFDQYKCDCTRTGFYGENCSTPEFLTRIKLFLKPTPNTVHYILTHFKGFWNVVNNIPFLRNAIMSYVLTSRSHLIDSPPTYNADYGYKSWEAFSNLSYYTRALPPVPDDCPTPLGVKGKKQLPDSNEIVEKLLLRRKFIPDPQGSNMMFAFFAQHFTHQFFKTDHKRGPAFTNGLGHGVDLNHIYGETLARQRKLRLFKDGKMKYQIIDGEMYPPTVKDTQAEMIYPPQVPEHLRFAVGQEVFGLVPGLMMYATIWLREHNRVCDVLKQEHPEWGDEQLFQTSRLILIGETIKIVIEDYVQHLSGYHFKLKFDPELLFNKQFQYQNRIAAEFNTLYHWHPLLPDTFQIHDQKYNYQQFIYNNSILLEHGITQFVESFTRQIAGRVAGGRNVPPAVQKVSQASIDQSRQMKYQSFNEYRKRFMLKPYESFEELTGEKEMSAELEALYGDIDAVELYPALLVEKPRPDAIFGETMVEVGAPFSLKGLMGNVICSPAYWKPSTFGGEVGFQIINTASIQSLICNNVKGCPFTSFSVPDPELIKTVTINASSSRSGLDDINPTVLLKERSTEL

[10] = biological target: COX-1/COX-2 (Homo sapiens) (UniProt P35354+P23219); experiment: Selectivity index, ratio of IC50 for COX-1 (unknown origin) to IC50 for COX-2 (unknown origin); type: protein assay
Sequence of COX-1/COX-2 (Homo sapiens) (P23219 whole entry, looked up, one chain of several): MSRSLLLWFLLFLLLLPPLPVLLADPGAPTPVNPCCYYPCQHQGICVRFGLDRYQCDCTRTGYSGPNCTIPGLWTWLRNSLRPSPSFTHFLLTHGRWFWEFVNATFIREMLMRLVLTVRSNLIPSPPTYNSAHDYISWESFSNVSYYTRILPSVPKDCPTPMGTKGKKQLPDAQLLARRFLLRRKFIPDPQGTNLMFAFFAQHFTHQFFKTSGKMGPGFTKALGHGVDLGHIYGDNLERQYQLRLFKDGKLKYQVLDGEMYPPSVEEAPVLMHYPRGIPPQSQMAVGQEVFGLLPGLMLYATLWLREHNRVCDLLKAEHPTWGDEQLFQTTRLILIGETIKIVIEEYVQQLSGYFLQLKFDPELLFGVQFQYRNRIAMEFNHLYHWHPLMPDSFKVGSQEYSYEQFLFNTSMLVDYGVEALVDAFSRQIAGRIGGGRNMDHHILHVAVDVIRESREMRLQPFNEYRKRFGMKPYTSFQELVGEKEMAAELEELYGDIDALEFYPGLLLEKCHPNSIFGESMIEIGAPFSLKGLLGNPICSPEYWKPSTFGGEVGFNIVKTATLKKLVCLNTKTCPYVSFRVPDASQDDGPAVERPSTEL

BV-2 = experiment: Antiinflammatory activity in mouse BV-2 cells assessed as reduction in LPS-induced nitric oxide production at 10 uM relative to control; type: functional; parameters: scale not given: the % may be the effect or the level left

Structure (SMILES): Cc1c(C(=O)/C=C/c2ccc(Cl)cc2Cl)c(C(=O)/C=C/c2ccc(Cl)cc2Cl)nn1-c1ccc(Br)cc1
- Activity (Rattus norvegicus [2]): 9.26%

Structure (SMILES): Cc1c(C(=O)/C=C/c2ccco2)c(C(=O)/C=C/c2ccco2)nn1-c1ccc(F)cc1
- Activity (Rattus norvegicus [2]): 16.79%

Structure (SMILES): CN(C)c1ccc(/C=C/C=C/C(=O)c2ccc(OCCCOc3ccc(C(=O)/C=C/C=C/c4ccc(N(C)C)cc4)cc3)cc2)cc1
- IC50 [3]: 56000 nM
- inhibition [1]: 93%

Structure (SMILES): Cc1c(C(=O)/C=C/c2ccc(Cl)cc2Cl)c(C(=O)/C=C/c2ccc(Cl)cc2Cl)nn1-c1ccccc1
- Activity (Rattus norvegicus [2]): 12.86%

Structure (SMILES): Cc1ccc(-n2nc(C(=O)/C=C/c3ccccc3)c(C(=O)/C=C/c3ccccc3)c2C)cc1
- Activity (Rattus norvegicus [4]): 62.69%
- Activity (Rattus norvegicus [5]): 61.76%
- Activity (Rattus norvegicus [6]): 28.72%
- Activity (Rattus norvegicus [7]): 30.16%

Structure (SMILES): Cc1c(C(=O)/C=C/c2ccccc2)c(C(=O)/C=C/c2ccccc2)nn1-c1ccccc1
- Activity (Rattus norvegicus [4]): 77.66%
- Activity (Rattus norvegicus [5]): 79.67%
- Activity (Rattus norvegicus [6]): 32.58%
- Activity (Rattus norvegicus [7]): 38.9%

Structure (SMILES): Cc1c(C(=O)/C=C/c2ccc(Cl)cc2)c(C(=O)/C=C/c2ccc(Cl)cc2)nn1-c1ccccc1
- Activity (Rattus norvegicus [4]): 53.2%
- Activity (Rattus norvegicus [5]): 57.97%
- Activity (Rattus norvegicus [6]): 24.37%
- Activity (Rattus norvegicus [7]): 28.31%

Structure (SMILES): Cc1c(C(=O)/C=C/c2ccc(Cl)cc2Cl)c(C(=O)/C=C/c2ccc(Cl)cc2Cl)nn1-c1ccc(Cl)cc1
- Activity (Rattus norvegicus [2]): 15.36%

Structure (SMILES): Cc1ccc(-n2nc(C(=O)/C=C/c3ccco3)c(C(=O)/C=C/c3ccco3)c2C)cc1
- Activity (Rattus norvegicus [4]): 21.14%
- Activity (Rattus norvegicus [5]): 23.2%
- Activity (Rattus norvegicus [6]): 9.69%
- Activity (Rattus norvegicus [7]): 11.33%

Structure (SMILES): Cc1c(C(=O)/C=C/c2ccco2)c(C(=O)/C=C/c2ccco2)nn1-c1ccccc1
- Activity (Rattus norvegicus [4]): 61.45%
- Activity (Rattus norvegicus [5]): 58.6%
- Activity (Rattus norvegicus [6]): 28.15%
- Activity (Rattus norvegicus [7]): 28.61%

Structure (SMILES): O=C(/C=C/c1cccc2ccccc12)c1ccc(OCCCOc2ccc(C(=O)/C=C/c3cccc4ccccc34)cc2)cc1
- IC50 [3]: 55000 nM
- inhibition [1]: 100%

Structure (SMILES): Cc1ccc(-n2nc(C(=O)/C=C/c3ccc(Cl)cc3)c(C(=O)/C=C/c3ccc(Cl)cc3)c2C)cc1
- Activity (Rattus norvegicus [4]): 59.87%
- Activity (Rattus norvegicus [5]): 53.08%
- Activity (Rattus norvegicus [6]): 21.23%
- Activity (Rattus norvegicus [7]): 25.92%

Structure (SMILES): Cc1c(C(=O)/C=C/c2ccc(Cl)cc2Cl)c(C(=O)/C=C/c2ccc(Cl)cc2Cl)nn1-c1ccc(F)cc1
- Activity (Rattus norvegicus [2]): 13.57%

Structure (SMILES): Cc1ccc(-n2nc(C(=O)/C=C/c3ccc(Cl)cc3Cl)c(C(=O)/C=C/c3ccc(Cl)cc3Cl)c2C)cc1
- Activity (Rattus norvegicus [2]): 10.71%

Structure (SMILES): COc1ccc(/C=C/C(=O)c2nn(-c3ccccc3)c(C)c2C(=O)/C=C/c2ccc(OC)cc2)cc1
- Activity (Rattus norvegicus [4]): 71.35%
- Activity (Rattus norvegicus [5]): 73.56%
- Activity (Rattus norvegicus [6]): 32.69%
- Activity (Rattus norvegicus [7]): 35.92%

Structure (SMILES): Cc1c(C(=O)/C=C/c2ccco2)c(C(=O)/C=C/c2ccco2)nn1-c1ccc(Br)cc1
- Activity (Rattus norvegicus [2]): 1.07%

Structure (SMILES): COc1ccc(/C=C/C(=O)c2nn(-c3ccc(C)cc3)c(C)c2C(=O)/C=C/c2ccc(OC)cc2)cc1
- Activity (Rattus norvegicus [4]): 59.87%
- Activity (Rattus norvegicus [5]): 43.78%
- Activity (Rattus norvegicus [6]): 27.43%
- Activity (Rattus norvegicus [7]): 21.38%

Structure (SMILES): COc1cc(/C=C/C(=O)c2cccc(C(=O)/C=C/c3ccc(O)c(OC)c3)c2)ccc1O
- Activity (BV-2): 70%

Structure (SMILES): CN(C)c1ccc(/C=C/C=C/C(=O)c2ccc(OCCCCCOc3ccc(C(=O)/C=C/C=C/c4ccc(N(C)C)cc4)cc3)cc2)cc1
- inhibition [1]: 23%

Structure (SMILES): CN(C)c1ccc(/C=C/C=C/C(=O)c2ccc(OCCOc3ccc(C(=O)/C=C/C=C/c4ccc(N(C)C)cc4)cc3)cc2)cc1
- inhibition [1]: 77%

Structure (SMILES): CN(C)c1ccc(/C=C/C=C/C(=O)c2ccc(OCCCCCCCCOc3ccc(C(=O)/C=C/C=C/c4ccc(N(C)C)cc4)cc3)cc2)cc1
- inhibition [1]: 12%

Second part, led by results:

- inhibition [1]: 7%
Structure (SMILES): CN(C)c1ccc(/C=C/C=C/C(=O)c2ccc(OCCCCCCOc3ccc(C(=O)/C=C/C=C/c4ccc(N(C)C)cc4)cc3)cc2)cc1

- inhibition [1]: 41%
Structure (SMILES): O=C(/C=C/c1ccc(OCc2ccc(Br)cc2)cc1)c1ccc(OCCCOc2ccc(C(=O)/C=C/c3ccc(OCc4ccc(Br)cc4)cc3)cc2)cc1

- IC50 [3]: 55000 nM
- inhibition [1]: 100%
Structure (SMILES): O=C(/C=C/c1ccc(Oc2ccccc2)cc1)c1ccc(OCCCOc2ccc(C(=O)/C=C/c3ccc(Oc4ccccc4)cc3)cc2)cc1

- inhibition [1]: 65%
Structure (SMILES): CN(C)c1ccc(/C=C/C=C/C(=O)c2ccc(OCCCCCCCOc3ccc(C(=O)/C=C/C=C/c4ccc(N(C)C)cc4)cc3)cc2)cc1

- inhibition [1]: 95%
Structure (SMILES): O=C(/C=C/C=C/c1ccc([N+](=O)[O-])cc1)c1ccc(OCCCOc2ccc(C(=O)/C=C/C=C/c3ccc([N+](=O)[O-])cc3)cc2)cc1

- inhibition [1]: 57%
Structure (SMILES): O=C(/C=C/c1ccco1)c1ccc(OCCCOc2ccc(C(=O)/C=C/c3ccco3)cc2)cc1

- IC50 [8]: 4500 nM
Structure (SMILES): O=C1/C(=C/c2ccccn2)CNC/C1=C\c1ccccn1
- inhibition (RAW264.7): 100%

- inhibition [1]: 24.5%
Structure (SMILES): O=C(/C=C/C(Br)=C/c1ccccc1)c1ccc(OCCCOc2ccc(C(=O)/C=C/C(Br)=C/c3ccccc3)cc2)cc1

- IC50 [9]: 700 nM
- Ratio IC50 [10]: 76
Structure (SMILES): COc1ccc(/C=C/C(=O)c2nn(-c3ccc(Br)cc3)c(C)c2C(=O)/C=C/c2ccc(OC)cc2)cc1

- inhibition [1]: 32%
Structure (SMILES): O=C(/C=C/c1cccs1)c1ccc(OCCCOc2ccc(C(=O)/C=C/c3cccs3)cc2)cc1

- inhibition [1]: 98%
Structure (SMILES): O=C(/C=C/c1c[nH]c2ccccc12)c1ccc(OCCCOc2ccc(C(=O)/C=C/c3c[nH]c4ccccc34)cc2)cc1

- inhibition [1]: 41%
Structure (SMILES): O=C(/C=C/C=C/c1ccccc1)c1ccc(OCCCOc2ccc(C(=O)/C=C/C=C/c3ccccc3)cc2)cc1

- IC50 [9]: 1500 nM
- Ratio IC50 [10]: 65.3
Structure (SMILES): Cc1c(C(=O)/C=C/c2ccco2)c(C(=O)/C=C/c2ccco2)nn1-c1ccc(Cl)cc1
- Activity (Rattus norvegicus [2]): 27.86%

- inhibition [1]: 27%
Structure (SMILES): CN(C)c1ccc(/C=C/C=C/C(=O)c2ccc(OCCCCOc3ccc(C(=O)/C=C/C=C/c4ccc(N(C)C)cc4)cc3)cc2)cc1

- inhibition [1]: 76%
Structure (SMILES): O=C(/C=C/c1ccccc1)c1ccc(OCCCOc2ccc(C(=O)/C=C/c3ccccc3)cc2)cc1

- IC50 [9]: 300 nM
- Ratio IC50 [10]: 333
Structure (SMILES): COc1ccc(/C=C/C(=O)c2nn(-c3ccc(Cl)cc3)c(C)c2C(=O)/C=C/c2ccc(OC)cc2)cc1
- Activity (Rattus norvegicus [2]): 66.21%

- inhibition [1]: 52%
Structure (SMILES): Cc1ccc(/C=C/C(=O)c2ccc(OCCCOc3ccc(C(=O)/C=C/c4ccc(C)o4)cc3)cc2)o1

- inhibition [1]: 26.5%
Structure (SMILES): CC(/C=C/C(=O)c1ccc(OCCCOc2ccc(C(=O)/C=C/C(C)=C/c3ccccc3)cc2)cc1)=C\c1ccccc1

- IC50 [9]: 320 nM
- Ratio IC50 [10]: 312
Structure (SMILES): COc1ccc(/C=C/C(=O)c2nn(-c3ccc(F)cc3)c(C)c2C(=O)/C=C/c2ccc(OC)cc2)cc1
- Activity (Rattus norvegicus [2]): 65.21%

Source: ChEMBL document CHEMBL5346938, “Bis-chalcones: A review of synthetic methodologies and anti-inflammatory effects” (Eur J Med Chem, 2023)
